From patent US20240252677A1, “ONE-COMPONENT DELIVERY SYSTEM FOR NUCLEIC ACIDS” (The Trustees of the University of Pennsylvania, priority 2021, published 2024)
Each block holds one compound with its values, some of them ahead of it.

Key:
[1] = DLS size of dendrimersomes assembled from glycerol-JDs in water at different concentrations; format: physicochemical; conditions: for Dh (nm): size distribution by intensity
Protocol: Assembly of all eight glycerol-JDs was performed by injection of their ethanol solution (50 μL) into 1 mL of Milli-Q water. The size distribution and structure of resulting DSs were analyzed by DLS (FIG. 84) and cryo-TEM. […] In a certain concentration range the size of DSs increased with the concentration of JDs injected in water or buffer. […] The dimensions of the assemblies were identical when the concentrations of the JDs in water were identical. Sizes of assemblies from mixtures of 1R and 1S in different ratios (1:3, 1:1 and 3:1), were also identical (FIG. 84). […] With the exception of the rotation of polarized light, the physical properties of enantiomers and their racemic mixtures must be identical.
Dynamic light scattering (DLS). Hydrodynamic diameters (Dh) of the self-assemblies of dendrimer molecules and their size distributions were measured on a Malvern Instruments particle sizer (Zetasizer® Nano S, Malvern Instruments, UK) equipped with 4 mW He—Ne laser (633 nm) and avalanche photodiode positioned at […] to the beam and temperature controlled cuvette holder. Experiments were performed at 25° C. in triplicate. The distribution of radius was intensity.

[2] = pKa measurements of individual IAJD molecules by titration; format: physicochemical; conditions: individual IAJD molecule; for Avg pKa: average of pKa 1-3; for pKa 1: measurement 1; for pKa 2: measurement 2; for pKa: ethanol saturated with NaCl, titrated with 0.1 M aqueous HCl, Table 15
Protocol: pKa measurements of individual IAJD Molecules was performed as follows. IAJD Molecules were first dissolved in ethanol (Sat. with NaCl) at a concentration of 1.5 mg/mL and the solution volume was 3 mL.
Then 0.1 M HCl solution was added to the above ethanol solution with an increment of 7.5 μL. The resulting pH after each addition of HCl solution was measured by an Thermo Scientific Orion Star A121 meter with Thermo Scientific Orion 8220BNWP pH probe. pKa was determined using the half equivalence point titration.

Compound: CCCCCCCCCCCCOc1cc(OCCCCCCCCCCCC)cc(C(=O)OCC(COC(=O)c2cc(OCCCCCCCCCCCC)cc(OCCCCCCCCCCCC)c2)OC(=O)C(C)(COC(=O)c2cc(OCCOCCOCCOC)c(OCCOCCOCCOC)c(OCCOCCOCCOC)c2)COC(=O)c2cc(OCCOCCOCCOC)c(OCCOCCOCCOC)c(OCCOCCOCCOC)c2)c1 [Compound 3, (3,5)-12G1-GC-(achiral)-BMPA-(3,4,5)-3EO-G2]
PDI ([1]; JD 0.025 mg·mL−1 in water): 0.272 | Dh (nm) ([1]; JD 0.025 mg·mL−1 in water): 72 nm | PDI ([1]; JD 0.05 mg·mL−1 in water): 0.241 | Dh (nm) ([1]; JD 0.05 mg·mL−1 in water): 97 nm | PDI ([1]; JD 0.1 mg·mL−1 in water): 0.183 | Dh (nm) ([1]; JD 0.1 mg·mL−1 in water): 123 nm | PDI ([1]; JD 0.25 mg·mL−1 in water): 0.153 | Dh (nm) ([1]; JD 0.25 mg·mL−1 in water): 144 nm | PDI ([1]; JD 0.5 mg·mL−1 in water): 0.152 | Dh (nm) ([1]; JD 0.5 mg·mL−1 in water): 162 nm | PDI ([1]; JD 0.75 mg·mL−1 in water): 0.236 | Dh (nm) ([1]; JD 0.75 mg·mL−1 in water): 224 nm | PDI ([1]; JD 1.0 mg·mL−1 in water): 0.233 | Dh (nm) ([1]; JD 1.0 mg·mL−1 in water): 266 nm

Compound: CCCCCCCCCCCCOc1cc(OCCCCCCCCCCCC)cc(C(=O)OCC(C)(COC(=O)c2cc(OCCCCCCCCCCCC)cc(OCCCCCCCCCCCC)c2)C(=O)OC(COC(=O)c2cc(OCCOCCOCCOC)c(OCCOCCOCCOC)c(OCCOCCOCCOC)c2)COC(=O)c2cc(OCCOCCOCCOC)c(OCCOCCOCCOC)c(OCCOCCOCCOC)c2)c1 [Compound 4, (3,5)-12G2-BMPA-GC-(achiral)-(3,4,5)-3EO-G1]
PDI ([1]; JD 0.025 mg·mL−1 in water): 0.391 | Dh (nm) ([1]; JD 0.025 mg·mL−1 in water): 100 nm | PDI ([1]; JD 0.05 mg·mL−1 in water): 0.266 | Dh (nm) ([1]; JD 0.05 mg·mL−1 in water): 102 nm | PDI ([1]; JD 0.1 mg·mL−1 in water): 0.136 | Dh (nm) ([1]; JD 0.1 mg·mL−1 in water): 119 nm | PDI ([1]; JD 0.25 mg·mL−1 in water): 0.180 | Dh (nm) ([1]; JD 0.25 mg·mL−1 in water): 132 nm | PDI ([1]; JD 0.5 mg·mL−1 in water): 0.183 | Dh (nm) ([1]; JD 0.5 mg·mL−1 in water): 166 nm | PDI ([1]; JD 0.75 mg·mL−1 in water): 0.233 | Dh (nm) ([1]; JD 0.75 mg·mL−1 in water): 210 nm | PDI ([1]; JD 1.0 mg·mL−1 in water): 0.291 | Dh (nm) ([1]; JD 1.0 mg·mL−1 in water): 284 nm

Compound: CCCCCCCCCCCCOc1cc(CNC(=O)c2cc(OCCOCCOCCOC(=O)CCCN(C)C)c(OCCOCCOCCOCc3ccccc3)c(OCCOCCOCCOC(=O)CCCN(C)C)c2)cc(OCCCCCCCCCCCC)c1 [IAJD 9]
Avg pKa [2]: 6.56 | pKa 1 ([2]; titration): 6.52 | pKa 2 ([2]; titration): 6.52 | pKa 3 ([2]; titration, measurement 3): 6.64

Compound: CCCCCCCCCCCCOc1cc(OCCCCCCCCCCCC)cc(C(=O)OCC(COC(=O)c2cc(OCCCCCCCCCCCC)cc(OCCCCCCCCCCCC)c2)(COC(=O)c2cc(OCCOCCOCCOC(=O)CCCN(C)C)c(OCCOCCOCCOC(=O)CCCN(C)C)c(OCCOCCOCCOC(=O)CCCN(C)C)c2)NC(=O)c2cc(OCCOCCOCCOC)c(OCCOCCOCCOC)c(OCCOCCOCCOC)c2)c1 [IAJD 42]
Avg pKa [2]: 6.06 | pKa 1 ([2]; titration): 6.06

Compound: CCCCCCCCCCCCOc1cc(COC(=O)CCCN(C)C)cc(OCCCCCCCCCCCC)c1 [IAJD 64, 3,5-Bis(dodecyloxy)benzyl 4-(dimethylamino)butanoate]
pKa ([2]; titration): 7.06

Continued, values first:

Avg pKa [2]: 6.20 | pKa 1 ([2]; titration): 6.20
Compound: CCCCCCCCCCCCOc1cc(CNC(=O)c2cc(OCCOCCOCCOC)c(OCCOCCOCCOC(=O)CCCN(C)C)c(OCCOCCOCCOC)c2)cc(OCCCCCCCCCCCC)c1 [IAJD 2]

Avg pKa [2]: 6.43 | pKa 1 ([2]; titration): 6.43
Compound: CCCCCCCCCCCCOc1cc(CNC(=O)c2cc(OCCOCCOCCOC(=O)CCCN(C)C)c(OCCOCCOCCOC)c(OCCOCCOCCOC(=O)CCCN(C)C)c2)cc(OCCCCCCCCCCCC)c1 [IAJD 4]

Avg pKa [2]: 6.38 | pKa 1 ([2]; titration): 6.43 | pKa 2 ([2]; titration): 6.32
Compound: CCCCCCCCCCCCOc1cc(OCCCCCCCCCCCC)cc(C(=O)OCC(COC(=O)c2cc(OCCCCCCCCCCCC)cc(OCCCCCCCCCCCC)c2)(COC(=O)c2cc(OCCOCCOCCOC)c(OCCOCCOCCOC)c(OCCOCCOCCOC(=O)CCCN(C)C)c2)NC(=O)c2cc(OCCOCCOCCOC)c(OCCOCCOCCOC)c(OCCOCCOCCOC)c2)c1 [IAJD 38]

Avg pKa [2]: 6.36 | pKa 1 ([2]; titration): 6.38 | pKa 2 ([2]; titration): 6.34
Compound: CCCCCCCCCCCCOc1cc(OCCCCCCCCCCCC)cc(C(=O)OCC(COC(=O)c2cc(OCCCCCCCCCCCC)cc(OCCCCCCCCCCCC)c2)(COC(=O)c2cc(OCCOCCOCCOC(=O)CCCN(C)C)c(OCCOCCOCCOC)c(OCCOCCOCCOC(=O)CCCN(C)C)c2)NC(=O)c2cc(OCCOCCOCCOC)c(OCCOCCOCCOC)c(OCCOCCOCCOC)c2)c1 [IAJD 41]

pKa ([2]; titration): 6.37
Compound: CCCCCCCCCCCCOc1cc(COC(=O)CCCN2CCN(C)CC2)cc(OCCCCCCCCCCCC)c1 [IAJD 66, 3,5-Bis(dodecyloxy)benzyl 4-(4-methylpiperazin-1-yl)butanoate]

pKa ([2]; titration): 6.44
Compound: CCCCCCCCCCCCOc1cc(CNC(=O)CCCN2CCN(C)CC2)cc(OCCCCCCCCCCCC)c1 [IAJD 70, N-(3,5-bis(dodecyloxy)benzyl)-4-(4-methylpiperazin-1-yl)butanamide]
